# How the values were obtained:
# B16-F0 [1] = assay: MTT assay, B16-F0; format: cell-based; settings: Mus musculus
# Procedure: (§1) Cell density measurements were performed using a hemocytometer to count reproductive cells resistant to staining with trypan blue. Approximately 20,000 cells were plated into each well of 96-well flat-bottomed micro-titer plates. After 12 h or 24 h incubation at 37° C., medium containing either COH-SR4 (ranging 0-200 μM) or elesclomol (ranging 0-20 μM) were added to the cells. After 24 h, 48 h or 96 h incubation, 20 μL of 5 mg/mL MTT were introduced to each well and incubated for 2 h. The plates were centrifuged and medium was decanted. Cells were subsequently dissolved in 100 μl DMSO with gentle shaking for 2 h at room temperature, followed by measurement of OD570 (91).
# Cells of highly aggressive mouse melanoma cell line B16-F0 or human melanoma cell line Hs600T were incubated with various doses of COH-SR4 (1, 2.5, 5, 10, 25, 50, or 100 μM). The cell viabilities after treatment of 48 hours and 96 hours were measured and summarized in FIGS. 54A and 55A, respectively. […] Data were presented as mean±Standard Deviation from two separate determinations with eight replicate each (n=16).
# B16-F0 [2] = assay: Colony formation assay, B16-F0; format: cell-based, mouse; settings: 10 μM, vs untreated control
# Procedure: Cell survival was evaluated using a standard colony-forming assay. […] After 7 or 10 days, adherent colonies were fixed, stained with 0.5% methylene blue for 30 min and colonies were counted using the Innotech Alpha Imager HP (91).
# GST = GST activity towards CDNB in melanoma cell supernatants; format: biochemical; settings: B16-F0, Hs600T, A2058 supernatants; 1 mM GSH and CDNB
# Procedure: GST activity towards 1-chloro 2,4-dinitro benzene (CDNB) and its inhibition by COH-SR4 was performed in 28000×g crude supernatant prepared from B16-F0, Hs600T and A2058 cells. Human liver purified GST was used as a control (inset). The inhibitory effect of COH-SR4 on GST was studied at a fixed concentration of GSH and CDNB (1 mM each) and varying concentrations of inhibitor. The enzymes were pre-incubated with the inhibitor for 5 min at 37° C. prior to the addition of the substrates. […] The ability of COH-SR4 to inhibit GST activity in melanomas represents a potential mechanism that contributes to decreased survival of melanoma cells following COH-SR4 treatment (FIG. 68A).
# [3] = tested on: isolated mouse liver mitochondria; assay: Mitochondrial swelling assay; settings: potassium acetate buffer with valinomycin
# Procedure: Mitochondrial swelling was measured in non-respiring mouse liver mitochondria incubated in buffered isotonic potassium acetate in the presence of valinomycin (24,25). […] Absorbance of the mitochondrial suspension before and after addition test compounds was measured every 10 seconds using a Varian Cary 300 spectrophotometer (Agilent Technologies, Santa Clara, Calif.). Swelling was recorded from the decrease in absorbance at 600 nm and expressed as percentage from initial reading after addition of mitochondria.
# Mitochondrial membrane swelling was detected as decrease in absorbance at 600 nm following the addition of COH-SR4 or FCCP alone or in the presence of cysclosporin A (CSA, 1 μM) on isolated mouse liver mitochondria respiring on succinate (10 mM) in the presence of rotenone (1 μM) and valinomycin (5 μM) in potassium acetate buffer. […] Arrow indicates time of addition of test compounds into the mitochondria suspension.
# H1417 cells = assay: MTT assay, H1417; format: cell-based; settings: Homo sapiens, NCI-H1417, 48 h
# Procedure: as §1
# The effect of COH-SR4 was first examined in a NCI panel of cancer cell lines, the results of which indicated good activity of COH-SR4 towards lung cancer (FIG. 78A). […] Values are presented as mean±SD from two separate determinations with eight replicates each (n=16) (FIG. 78B). […] Standard colony-forming assay was performed and the colonies were counted using Innotech Alpha Imager HP. […] TUNEL assay was performed using Promega fluorescence detection kit and examined using Zeiss LSM 510 META laser-scanning fluorescence microscope with filters 520 and 620 nm. […]
# H-358 and H-520 cells = assay: Cell cycle FACS analysis, lung cancer; format: cell-based, human
# Procedure: 2×10^5 cells were treated with COH-SR4 (0 μM, 5 μM or 10 μM) for 18 h at 37° C. After treatment, floating and adherent cells were collected, washed with PBS, and fixed with 70% ethanol. On the day of flow analysis, cell suspensions were centrifuged; counted and same numbers of cells were resuspended in 500 μL PBS in flow cytometry tubes. Cells were then incubated with 2.5 μL of RNase (stock 20 mg/mL) at 37° C. for 30 min after which they were treated with 10 μL of propidium iodide (stock 1 mg/mL) solution and then incubated at room temperature for 30 min in the dark. The stained cells were analyzed using the Beckman Coulter Cytomics FC500, Flow Cytometry Analyzer. Results were processed using CXP2.2 analysis software from Beckman Coulter.
# In the context of the elevation of GSTs in lung cancer, the impact of COH-SR4 on the catalytic activity of GSTs towards 1-chloro 2,4-dinitro benzene (CDNB), a model substrate used for GST activity was analyzed. GST activity towards 1-chloro 2,4-dinitro benzene (CDNB) and its inhibition by COH-SR4 was performed in 28000×g crude supernatant prepared from H1417, H1618, H520 and H358 cells. The inhibitory effect of COH-SR4 on GST was studied at a fixed concentration of GSH and CDNB (1 mM each) and varying concentrations of inhibitor. The enzymes were pre-incubated with the inhibitor for 5 min at 37° C. prior to the addition of the substrates. […]
smiles,measurement,setting,value
"O=C(Nc1cc(Cl)cc(Cl)c1)Nc1cc(Cl)cc(Cl)c1 [COH-SR4, 1,3-bis(3,5-dichlorophenyl) urea]",IC50,"B16-F0 [1]; B16F0, 48 h, 48 hours",~14 µM
same,IC50,"B16-F0 [1]; B16F0, 96 h, 96 hours",~5 µM
same,colony formation,B16-F0 [2],38±9%
same,total GST activity towards CDNB,GST,inhibited the total GST activity to a significant extent
same,mitochondrial swelling (absorbance at 600 nm),[3],mitochondrial swelling was observed
same,IC50,H1417 cells,1.2 ± 0.2 µM
same,cell cycle arrest,H-358 and H-520 cells,induced G0/G1 phase arrest in a concentration dependent manner

# — patent US9808434B2, “Compound for treating cancer and diabetes” (CITY OF HOPE, priority 2011, dated 2017)
